Values quoted from earlier work as cited in patent US20060189586A1, “Pharmaceutical compositions comprising active vitamin D compounds” (priority 2003, published 2006).

Conditions: in vivo

Row | SMILES | Hypercalcemic effect compared to calcitriol
1 | C=C1/C(=C/C=C2\CCC[C@]3(C)C([C@H](C)CC#CC(O)(C(F)(F)F)C(F)(F)F)=CC[C@@H]23)C[C@@H](O)C[C@@H]1O [Ro24-5531] | reduced hypercalcemic effect
2 | C=C1/C(=C\C=C2/CCC[C@]3(C)C([C@H](C)CC#CC(C)(C)O)=CC[C@@H]23)C[C@@H](O)C[C@@H]1O [Ro23-7553] | reduced hypercalcemic effect
